Test results taken from PubChem BioAssay AID180 (DTP/NCI, 2004).
“And” between values parts separate entries of the source, which are not always exact repeats. Equal entries are not always repeated.

Tested on: BDF1 mice, Adenocarcinoma 755 s.c., tumor weight T/C
Assay: NCI In Vivo Anticancer Drug Screen. Data for tumor model Adenocarcinoma 755 (subcutaneous) in B6D2F1 (BDF1) mice
Conditions: endpoint: mean tumor weight, higher = larger tumour
How it was run: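 Readout: T/C, i.e. treated-group measurement over vehicle-control measurement. Endpoint is survival or tumor size in tumor-bearing mice given compound.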

[1] = dose: 25.0 mg/kg/injection, schedule: Q01DX011 (ip), vehicle: methylcellulose (MC)
[2] = dose: 80.0 mg/kg/injection, schedule: Q01DX011 (ip), vehicle: methylcellulose (MC)
[3] = dose: 6.25 mg/kg/injection, schedule: Q01DX011 (ip), vehicle: methylcellulose (MC)
[4] = dose: 12.5 mg/kg/injection, schedule: Q01DX011 (ip), vehicle: methylcellulose (MC)
[5] = dose: 50.0 mg/kg/injection, schedule: Q01DX011 (ip), vehicle: methylcellulose (MC)
[6] = dose: 15.0 mg/kg/injection, schedule: Q01DX011 (ip), vehicle: methylcellulose (MC)
[7] = dose: 30.0 mg/kg/injection, schedule: Q01DX011 (ip), vehicle: carboxymethylcellulose (CMC)
[8] = dose: 25.0 mg/kg/injection, schedule: Q01DX011 (ip), vehicle: carboxymethylcellulose (CMC)

For CCCCn1cnc2c(SCC(=O)O)nc(N)nc21, the T/C [1] was 54 % of control, the T/C [2] was 58 % of control and the T/C (dose: 250.0 mg/kg/injection, schedule: Q01DX011 (ip), vehicle: methylcellulose (MC)) was 69 % of control.

For O=S(=O)(F)c1ncnc2nc[nH]c12, the T/C (dose: 3.13 mg/kg/injection, schedule: Q01DX011 (ip), vehicle: methylcellulose (MC)) was 75 % of control, the T/C [3] was 113 % of control and the T/C [4] was 72 % of control.

With CC(=O)Nc1c(Cl)c(Cl)c2c(c1Cl)C(=O)c1cc(Cl)ccc1-2 the T/C [5] was 57 % of control, the T/C (dose: 50.0 mg/kg/injection, schedule: Q01DX011 (ip), vehicle: other) was 100 % of control and 112 % of control and the T/C (dose: 100.0 mg/kg/injection, schedule: Q01DX011 (ip), vehicle: methylcellulose (MC)) was 65 % of control. The T/C (dose: 100.0 mg/kg/injection, schedule: Q01DX011 (ip), vehicle: other) was 65 % of control, the T/C (dose: 400.0 mg/kg/injection, schedule: Q01DX011 (ip), vehicle: other) was 41 % of control and 64 % of control and 66 % of control and the T/C (dose: 800.0 mg/kg/injection, schedule: Q01DX011 (ip), vehicle: other) was 59 % of control.

In the case of CC(=O)Nc1nc(SCc2ccccc2)c2ncn(C(C)=O)c2n1, the T/C (dose: 7.5 mg/kg/injection, schedule: Q01DX011 (ip), vehicle: methylcellulose (MC)) is reported as 53 % of control, the T/C [6] is reported as 4 % of control and the T/C (dose: 30.0 mg/kg/injection, schedule: Q01DX011 (ip), vehicle: methylcellulose (MC)) is reported as 2 % of control.

In the case of S=c1nc[nH]c2c1ncn2C1CCCC1, the T/C (dose: 3.0 mg/kg/injection, schedule: Q01DX011 (ip), vehicle: methylcellulose (MC)) is reported as 69 % of control, the T/C (dose: 6.0 mg/kg/injection, schedule: Q01DX011 (ip), vehicle: methylcellulose (MC)) is reported as 50 % of control and the T/C (dose: 12.0 mg/kg/injection, schedule: Q01DX011 (ip), vehicle: methylcellulose (MC)) is reported as 22 % of control. For the same molecule, the T/C (dose: 15.0 mg/kg/injection, schedule: Q01DX011 (ip), vehicle: carboxymethylcellulose (CMC)) was 12 % of control and 17 % of control, the T/C (dose: 15.0 mg/kg/injection, schedule: Q01DX011 (oral), vehicle: carboxymethylcellulose (CMC)) was 13 % of control and the T/C [1] was 4 % of control and 5 % of control. For the same molecule, the T/C [7] was 6 % of control and 10 % of control, the T/C (dose: 30.0 mg/kg/injection, schedule: Q01DX011 (oral), vehicle: carboxymethylcellulose (CMC)) was 7 % of control and the T/C (dose: 60.0 mg/kg/injection, schedule: Q01DX011 (ip), vehicle: carboxymethylcellulose (CMC)) was 2 % of control and 3 % of control. The T/C (dose: 60.0 mg/kg/injection, schedule: Q01DX011 (oral), vehicle: carboxymethylcellulose (CMC)) was 4 % of control, the T/C (dose: 120.0 mg/kg/injection, schedule: Q01DX011 (oral), vehicle: carboxymethylcellulose (CMC)) was 3 % of control and the T/C (dose: 162.0 mg/kg/injection, schedule: Q01DX001 (ip), vehicle: carboxymethylcellulose (CMC)) was 94 % of control. The T/C (dose: 325.0 mg/kg/injection, schedule: Q01DX001 (ip), vehicle: carboxymethylcellulose (CMC)) was 7 % of control and the T/C (dose: 1300.0 mg/kg/injection, schedule: Q01DX001 (ip), vehicle: carboxymethylcellulose (CMC)) was 1 % of control.

For CCCCn1cnc2c(SCc3ccc(F)cc3)nc(N)nc21, the T/C (dose: 3.1 mg/kg/injection, schedule: Q01DX011 (ip), vehicle: methylcellulose (MC)) was 59 % of control, the T/C [3] was 47 % of control and the T/C [4] was 22 % of control. For the same molecule, the T/C [1] was 10 % of control and 14 % of control and the T/C [5] was 2 % of control.

With O=C1[O][Sb]23[O]C(=O)C([O]2)C(O)C(O)C2[O][Sb]4([O]C(=O)C([O]4)C(O)C(O)C1[O]3)[O]C2=O (stereo not given) the T/C [2] was 50 % of control and 55 % of control.

For CCCCOC(=O)C1(N)CCCC1, the T/C (dose: 3.12 mg/kg/injection, schedule: Q01DX011 (ip), vehicle: carboxymethylcellulose (CMC)) was 75 % of control, the T/C (dose: 6.25 mg/kg/injection, schedule: Q01DX011 (ip), vehicle: carboxymethylcellulose (CMC)) was 80 % of control and the T/C (dose: 12.5 mg/kg/injection, schedule: Q01DX011 (ip), vehicle: carboxymethylcellulose (CMC)) was 66 % of control. For the same molecule, the T/C [8] was 29 % of control and 35 % of control and the T/C (dose: 50.0 mg/kg/injection, schedule: Q01DX011 (ip), vehicle: carboxymethylcellulose (CMC)) was 12 % of control.

With CN(C)c1ccc2nc3ccc(=[N+](C)C)cc-3sc2c1 the T/C (dose: 5.0 mg/kg/injection, schedule: Q01DX011 (ip), vehicle: carboxymethylcellulose (CMC)) was 51 % of control, the T/C (dose: 5.24 mg/kg/injection, schedule: Q01DX011 (ip), vehicle: carboxymethylcellulose (CMC)) was 69 % of control and the T/C (dose: 5.76 mg/kg/injection, schedule: Q01DX011 (ip), vehicle: carboxymethylcellulose (CMC)) was 103 % of control. For the same molecule, the T/C (dose: 10.0 mg/kg/injection, schedule: Q01DX011 (ip), vehicle: carboxymethylcellulose (CMC)) was 99 % of control, the T/C (dose: 10.48 mg/kg/injection, schedule: Q01DX011 (ip), vehicle: carboxymethylcellulose (CMC)) was 109 % of control and the T/C (dose: 11.53 mg/kg/injection, schedule: Q01DX011 (ip), vehicle: carboxymethylcellulose (CMC)) was 97 % of control. For the same molecule, the T/C (dose: 20.0 mg/kg/injection, schedule: Q01DX011 (ip), vehicle: carboxymethylcellulose (CMC)) was 113 % of control, the T/C (dose: 20.95 mg/kg/injection, schedule: Q01DX011 (ip), vehicle: carboxymethylcellulose (CMC)) was 100 % of control and the T/C [8] was 123 % of control. For the same molecule, the T/C [7] was 103 % of control, the T/C (dose: 35.0 mg/kg/injection, schedule: Q01DX011 (ip), vehicle: carboxymethylcellulose (CMC)) was 104 % of control and the T/C (dose: 40.0 mg/kg/injection, schedule: Q01DX011 (ip), vehicle: carboxymethylcellulose (CMC)) was 68 % of control.

In the case of CC(=O)Nc1nc(SCc2ccccc2)c2ncn(C3CCCO3)c2n1 (stereo not given), the T/C (dose: 6.2 mg/kg/injection, schedule: Q01DX011 (ip), vehicle: methylcellulose (MC)) is reported as 54 % of control, the T/C [6] is reported as 6 % of control and the T/C [5] is reported as 4 % of control.

With CCOC1=C(N2CC2)C(=O)C(OCC)=C(N2CC2)C1=O the T/C (dose: 0.08 mg/kg/injection, schedule: Q01DX011 (ip), vehicle: carboxymethylcellulose (CMC)) was 36 % of control, the T/C (dose: 0.12 mg/kg/injection, schedule: Q01DX011 (ip), vehicle: carboxymethylcellulose (CMC)) was 94 % of control and the T/C (dose: 0.16 mg/kg/injection, schedule: Q01DX011 (ip), vehicle: carboxymethylcellulose (CMC)) was 46 % of control. For the same molecule, the T/C (dose: 0.25 mg/kg/injection, schedule: Q01DX011 (ip), vehicle: carboxymethylcellulose (CMC)) was 55 % of control, the T/C (dose: 0.32 mg/kg/injection, schedule: Q01DX011 (ip), vehicle: carboxymethylcellulose (CMC)) was 48 % of control and the T/C (dose: 0.5 mg/kg/injection, schedule: Q01DX011 (ip), vehicle: carboxymethylcellulose (CMC)) was 71 % of control. For the same molecule, the T/C (dose: 0.63 mg/kg/injection, schedule: Q01DX011 (ip), vehicle: carboxymethylcellulose (CMC)) was 35 % of control, the T/C (dose: 1.0 mg/kg/injection, schedule: Q01DX011 (ip), vehicle: carboxymethylcellulose (CMC)) was 44 % of control and the T/C (dose: 2.5 mg/kg/injection, schedule: Q01DX011 (ip), vehicle: methylcellulose (MC)) was 21 % of control. The T/C (dose: 10.0 micrograms/kg/injection, schedule: Q01DX011 (ip), vehicle: carboxymethylcellulose (CMC)) was 111 % of control, the T/C (dose: 40.0 micrograms/kg/injection, schedule: Q01DX011 (ip), vehicle: carboxymethylcellulose (CMC)) was 98 % of control and the T/C (dose: 80.0 micrograms/kg/injection, schedule: Q01DX011 (ip), vehicle: carboxymethylcellulose (CMC)) was 115 % of control.

In the case of CCCCN(C)N=Nc1ccc(CCC(=O)NN)cc1, the T/C (dose: 31.0 mg/kg/injection, schedule: Q01DX011 (ip), vehicle: carboxymethylcellulose (CMC)) is reported as 19 % of control.

In the case of CCC(=O)O[C@H]1CC[C@H]2[C@@H]3CCC4=CC(=O)CC[C@]4(C)[C@H]3[C@@H](O)C[C@]12C, the T/C (dose: 50.0 mg/kg/injection, schedule: Q01DX011 (sc), vehicle: steriod suspending solution) is reported as 121 % of control and the T/C (dose: 200.0 mg/kg/injection, schedule: Q01DX011 (sc), vehicle: steriod suspending solution) is reported as 101 % of control.
